Assay: Toxicity in iv dosed white Swiss-Webster mouse
Type: organism-based
Details: in vivo

`CCN1C[C@]2(COC(=O)c3ccccc3N3C(=O)C[C@H](C)C3=O)CC[C@H](O)[C@@]34[C@@H]5C[C@H]6[C@H](OC)[C@@H]5[C@](O)(C[C@@H]6OC)[C@](O)([C@@H](OC)[C@H]23)[C@@H]14` [GRANDIFLORINE] showed an LD50 of 8.3 mg/kg.

From ChEMBL document CHEMBL1150941, “The characterization and structure-activity evaluation of toxic norditerpenoid alkaloids from two Delphinium species” (J Nat Prod, 1998)
